We go through one compound from patent publication US20080033053A1, “Cross-Reference To Related Applications” (priority 2004, published 2008).

In general, half-life refers to the time needed for the level to fall by half in the phase considered.

The test system of data set [1] is Chinese Hamster Ovary cells. As to conditions: cited from earlier work.
The conditions of data set [2]: by glomerular filtration and renal tubular secretion; cited from earlier work.
The conditions of data set [3]: humans, cited from earlier work.
For data set [4], the system named is mouse bone marrow. The conditions noted are these: in vivo mouse bone marrow micronucleus test; cited from earlier work.
The test system of data set [5] is human peripheral blood lymphocytes. The conditions noted are these: in vitro; cited from earlier work.
Data set [6] deals with retinas from rats. Kind of data set: RNA expression profiling of retina, vehicle vs. (low dose & high dose) amantadine at steady state. Type of data set: in vivo, Sprague Dawley rats.
For data set [7] the following is noted: Ames Test; cited from earlier work.
Data set [8] has as its system patients with Huntington's disease. The conditions noted are these: eight patients with Huntington's disease, open-label; cited from earlier work.
For data set [9], the system named is rats. As to conditions: cited from earlier work.

Take `Cl.NC12CC3CC(CC(C3)C1)C2` [amantadine, 1-amino adamantane HCl]: the mutagenicity entry in data set [1] and in data set [7] was “non-mutagenic” each time. Besides, the excretion result in data set [2] is “primarily excreted unchanged in the urine”. The “half-life, range” value in data set [3] was 10 to 25 h. In data set [3] (mean ± spread), the half-life is 17 ± 4 h. Further, the chromosomal damage result in [4] and in data set [5] was “no evidence of chromosomal damage” throughout. The TRADD gene expression entry in [6] (retinas following amantadine treatment, no fold change printed) is given as “down-regulated”. For the same compound, in data set [6] (retinas of amantadine-treated rats), the “up-regulation of several crystallins” value is 4-21 fold. In data set [8], the dyskinesias result is given as “significant reduction of dyskinesias”. Also, the teratogenic dose in [9] was 50 mg/kg/day.
